13 molecules from patent US8426408B2, “Pyrimidine inhibitors of kinases” (AbbVie Inc., priority 2009, dated 2013) can be followed below.

What all share (assay type): biochemical
One assay has as its target T1, Aurora B (Homo sapiens, UniProt Q96GD4).
T1 construct: Active Aurora B enzyme (recombinant residues 1-344)
As to the kind of experiment: Aurora B enzyme inhibition (time-resolved fluorescence, histone H3 peptide). Particulars: 1 mM ATP. The method in brief: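 IC50s came from an exponential fit of inhibition against inhibitor concentration, with phosphorylation read as the 665/615 nm time-resolved fluorescence ratio after EDTA stop using Eu-anti-phospho-H3 and SA-APC. The 1 h reaction used Aurora B 1-344 plus GST-INCENP, biotin-histone H3 1-21 peptide and 1 mM ATP in pH 7.4 HEPES buffer.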

A further assay has as its target T2, Aurora A (Homo sapiens, UniProt O14965).
T2 sequence (O14965 1-403): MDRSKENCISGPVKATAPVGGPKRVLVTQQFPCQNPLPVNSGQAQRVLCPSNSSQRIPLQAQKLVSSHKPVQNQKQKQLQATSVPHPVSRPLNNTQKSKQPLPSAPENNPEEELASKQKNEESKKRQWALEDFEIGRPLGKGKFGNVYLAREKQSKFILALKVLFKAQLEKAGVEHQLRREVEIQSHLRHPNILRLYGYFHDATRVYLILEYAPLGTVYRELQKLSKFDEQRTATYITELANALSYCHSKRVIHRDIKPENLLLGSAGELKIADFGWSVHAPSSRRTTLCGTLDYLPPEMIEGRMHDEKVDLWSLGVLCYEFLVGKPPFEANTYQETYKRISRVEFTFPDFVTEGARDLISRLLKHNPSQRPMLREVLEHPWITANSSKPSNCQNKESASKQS
As to the kind of experiment: Aurora A enzyme inhibition (time-resolved fluorescence, STK substrate-2). The settings on record: 1 mM ATP. The method in brief:
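Phosphorylation of biotinylated STK substrate-2 at 1 mM ATP, 1 h, Hepes buffer pH 7.4 (MgCl2, sodium orthovanadate, Triton X-100). After EDTA quench, 665/615 nm time-resolved fluorescence ratio read via europium anti-phospho antibody and SA-XL665; IC50 from exponential fit versus inhibitor concentration.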

The next assay addresses KDR (Homo sapiens, UniProt P35968). The experiment in a line: KDR HTRF in vitro kinase assay. The settings on record: 1 mM ATP; read-out: KDR enzyme inhibition data (Ki). The arrangement: purified enzyme (His6-KDR 789-1354, MW 63 kD); His6 (N). The method in brief:
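His6-KDR 789-1354 (7 ng/well) with 0.5 μM biotinylated peptide substrate and 1 mM ATP in HEPES pH 7.1, MgCl2/MnCl2, 60 min at room temperature. EDTA-quenched, detected by streptavidin-XL-665 plus Eu-kryptate anti-phosphotyrosine HTRF after 3 h; IC50 from 620/665 nm ratio.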
In general terms: In TR-FRET formats the signal depends on donor and acceptor labels being close together.

KDR, sequence (P35968 789-1354): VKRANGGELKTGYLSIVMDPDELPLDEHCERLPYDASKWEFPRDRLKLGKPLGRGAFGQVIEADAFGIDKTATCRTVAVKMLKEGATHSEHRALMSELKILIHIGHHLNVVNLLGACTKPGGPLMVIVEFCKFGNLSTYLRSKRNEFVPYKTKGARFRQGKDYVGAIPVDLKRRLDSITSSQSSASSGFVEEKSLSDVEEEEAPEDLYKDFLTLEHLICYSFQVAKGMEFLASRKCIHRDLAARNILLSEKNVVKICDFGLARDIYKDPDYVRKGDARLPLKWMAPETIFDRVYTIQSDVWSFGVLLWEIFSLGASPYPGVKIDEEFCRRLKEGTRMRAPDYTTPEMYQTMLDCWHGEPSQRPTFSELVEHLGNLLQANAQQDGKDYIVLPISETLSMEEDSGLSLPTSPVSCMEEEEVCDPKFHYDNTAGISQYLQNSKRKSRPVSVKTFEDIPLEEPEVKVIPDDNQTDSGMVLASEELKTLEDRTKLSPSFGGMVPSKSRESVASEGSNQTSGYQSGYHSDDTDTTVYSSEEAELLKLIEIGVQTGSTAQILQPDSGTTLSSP
T1 sequence (Q96GD4 whole entry, the tested form may be a part): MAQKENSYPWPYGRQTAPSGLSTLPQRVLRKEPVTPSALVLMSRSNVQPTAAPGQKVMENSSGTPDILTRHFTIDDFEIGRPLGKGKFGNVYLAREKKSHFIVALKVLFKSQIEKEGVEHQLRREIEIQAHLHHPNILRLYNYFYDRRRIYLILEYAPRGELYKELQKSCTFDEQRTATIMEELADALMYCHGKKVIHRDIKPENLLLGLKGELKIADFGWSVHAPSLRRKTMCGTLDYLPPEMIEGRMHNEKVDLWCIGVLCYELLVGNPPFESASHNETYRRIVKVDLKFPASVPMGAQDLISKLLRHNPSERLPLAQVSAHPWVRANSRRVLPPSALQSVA
T1 sequence (Q9NQS7 826-918 partner limits assumed): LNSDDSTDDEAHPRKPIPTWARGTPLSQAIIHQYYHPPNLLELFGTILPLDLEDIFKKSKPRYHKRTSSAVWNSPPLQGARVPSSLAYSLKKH

In general, Ki refers to the dissociation constant of the complex between target and ligand, obtained from inhibition or displacement. With `Cn1cc(Nc2ncc(C(F)(F)F)c(N[C@@H]3[C@H](C(=O)NCCO)[C@H]4C=C[C@@H]3C4)n2)cn1.Cn1cc(Nc2ncc(C(F)(F)F)c(N[C@H]3[C@@H](C(=O)NCCO)[C@@H]4C=C[C@H]3C4)n2)cn1` (mixture of isomers) [Example 67, (1S,2S,3R,4R)—N-(2-hydroxyethyl)-3-{[2-[(1-methyl-1H-pyrazol-4-yl)amino]-5-(trifluoromethyl)pyrimidin-4-yl]amino}bicyclo[2.2.1]hept-5-ene-2-carboxamide and (1R,2R,3S,4S)—N-(2-hydroxyethyl)-3-{[2-[(1-methyl-1H-pyrazol-4-yl)amino]-5-(trifluoromethyl)pyrimidin-4-yl]amino}bicyclo[2.2.1]hept-5-ene-2-carboxamide], the inhibition constant (Ki) at Aurora B, at Aurora A and at KDR was under 100 nM each time.
“5-chloro-N^2-(1H-indazol-5-yl)-N^2-{1-[2-(pyrrolidin-1-yl)ethyl]-1H-pyrazol-4-yl}pyrimidine-2,4-diamine [Example 177]”: the inhibition constant Ki on Aurora B, on Aurora A and on KDR was under 100 nM throughout.
On to `Cn1cc(Nc2ncc(F)c(N[C@@H]3CCC[C@@H]3C(N)=O)n2)cn1.Cn1cc(Nc2ncc(F)c(N[C@H]3CCC[C@H]3C(N)=O)n2)cn1` (mixture of isomers) [Example 4, (1S,2R)-2-({5-fluoro-2-[(1-methyl-1H-pyrazol-4-yl)amino]pyrimidin-4-yl}amino)cyclopentanecarboxamide and (1R,2S)-2-({5-fluoro-2-[(1-methyl-1H-pyrazol-4-yl)amino]pyrimidin-4-yl}amino)cyclopentanecarboxamide], for which the inhibition constant Ki on Aurora B was 100 to 1000 nM; on Aurora A, over 5000 nM; on KDR it was over 5000 nM.
As to `CN(C)CCn1cc(Nc2ncc(Cl)c(N[C@@H]3[C@H](C(N)=O)[C@H]4C=C[C@@H]3C4)n2)cn1.CN(C)CCn1cc(Nc2ncc(Cl)c(N[C@H]3[C@@H](C(N)=O)[C@@H]4C=C[C@H]3C4)n2)cn1` (mixture of isomers) [Example 33, (1S,2S,3R,4R)-3-{[5-chloro-2-({1-[2-(dimethylamino)ethyl]-1H-pyrazol-4-yl}amino)pyrimidin-4-yl]amino}bicyclo[2.2.1]hept-5-ene-2-carboxamide and (1R,2R,3S,4S)-3-{[5-chloro-2-({1-[2-(dimethylamino)ethyl]-1H-pyrazol-4-yl}amino)pyrimidin-4-yl]amino}bicyclo[2.2.1]hept-5-ene-2-carboxamide], the inhibition constant Ki on Aurora B, on Aurora A and at KDR was under 100 nM throughout.
In the case of “(1S,2S,3R,4R)-3-[(5-chloro-2-{[1-(2-morpholin-4-ylethyl)-1H-pyrazol-4-yl]amino}pyrimidin-4-yl)amino]bicyclo[2.2.1]hept-5-ene-2-carboxamide and (1R,2R,3S,4S)-3-[(5-chloro-2-{[1-(2-morpholin-4-ylethyl)-1H-pyrazol-4-yl]amino}pyrimidin-4-yl)amino]bicyclo[2.2.1]hept-5-ene-2-carboxamide [Example 37]”, the Ki on Aurora B, on Aurora A and on KDR was under 100 nM throughout.
In the case of `NC(=O)[C@@H]1[C@H](Nc2nc(Nc3cnn(CC(F)(F)F)c3)ncc2C(F)(F)F)[C@H]2C=C[C@@H]1C2` [Example 64, (1S,2S,3R,4R)-3-{[2-{[1-(2,2,2-trifluoroethyl)-1H-pyrazol-4-yl]amino}-5-(trifluoromethyl)pyrimidin-4-yl]amino}bicyclo[2.2.1]hept-5-ene-2-carboxamide], the Ki at Aurora B, at Aurora A and at KDR was under 100 nM each time.
In the case of `Cn1cc(Nc2ncc(F)c(N[C@@H]3C[C@H]4CC[C@@H]3C4)n2)cn1.Cn1cc(Nc2ncc(F)c(N[C@H]3C[C@@H]4CC[C@H]3C4)n2)cn1` (mixture of isomers) [Example 3, N^4-[(1S,2S,4R)-bicyclo[2.2.1]hept-2-yl]-5-fluoro-N^2-(1-methyl-1H-pyrazol-4-yl)pyrimidine-2,4-diamine and N^4-[(1R,2R,4S)-bicyclo[2.2.1]hept-2-yl]-5-fluoro-N^2-(1-methyl-1H-pyrazol-4-yl)pyrimidine-2,4-diamine], the figures for the inhibitory constant (Ki) at Aurora B, at Aurora A and on KDR were 100 to 1000 nM, 1000 to 5000 nM and 1000 to 5000 nM, respectively.
In the case of `CCn1cc(Nc2ncc(Cl)c(N[C@@H]3[C@H](C(=O)NC)[C@H]4C=C[C@@H]3C4)n2)cn1.CCn1cc(Nc2ncc(Cl)c(N[C@H]3[C@@H](C(=O)NC)[C@@H]4C=C[C@H]3C4)n2)cn1` (mixture of isomers) [Example 51, (1S,2S,3R,4R)-3-({5-chloro-2-[(1-ethyl-1H-pyrazol-4-yl)amino]pyrimidin-4-yl}amino)-N-methylbicyclo[2.2.1]hept-5-ene-2-carboxamide and (1R,2R,3S,4S)-3-({5-chloro-2-[(1-ethyl-1H-pyrazol-4-yl)amino]pyrimidin-4-yl}amino)-N-methylbicyclo[2.2.1]hept-5-ene-2-carboxamide], the inhibitory constant (Ki) on Aurora B, on Aurora A and on KDR was under 100 nM each time.
`CC(C)OC(=O)Cn1cc(Nc2ncc(Cl)c(N[C@H]3[C@@H](C(N)=O)[C@@H]4C=C[C@H]3C4)n2)cn1` [Example 78, isopropyl{4-[(4-{[(1R,2R,3S,4S)-3-(aminocarbonyl)bicyclo[2.2.1]hept-5-ene-2-yl]amino}-5-chloropyrimidin-2-yl)amino]-1H-pyrazol-1-yl}acetate]: the Ki at Aurora B, at Aurora A and at KDR was under 100 nM throughout.
As for `CCn1cc(Nc2ncc(Br)c(N[C@@H]3[C@H](C(=O)NC)[C@H]4C=C[C@@H]3C4)n2)cn1.CCn1cc(Nc2ncc(Br)c(N[C@H]3[C@@H](C(=O)NC)[C@@H]4C=C[C@H]3C4)n2)cn1` (mixture of isomers) [Example 49, (1S,2S,3R,4R)-3-({5-bromo-2-[(1-ethyl-1H-pyrazol-4-yl)amino]pyrimidin-4-yl}amino)-N-methylbicyclo[2.2.1]hept-5-ene-2-carboxamide and (1R,2R,3S,4S)-3-({5-bromo-2-[(1-ethyl-1H-pyrazol-4-yl)amino]pyrimidin-4-yl}amino)-N-methylbicyclo[2.2.1]hept-5-ene-2-carboxamide], the Ki on Aurora B, on Aurora A and at KDR was under 100 nM each time.
For `COc1cnc(Nc2cnn(C)c2)nc1NC1C2C=CC(C2)C1C(N)=O` (mixture of isomers) [Example 52, (1S,2S,3R,4R)-3-({5-methoxy-2-[(1-methyl-1H-pyrazol-4-yl)amino]pyrimidin-4-yl}amino)bicyclo[2.2.1]hept-5-ene-2-carboxamide and (1R,2R,3S,4S)-3-({5-methoxy-2-[(1-methyl-1H-pyrazol-4-yl)amino]pyrimidin-4-yl}amino)bicyclo[2.2.1]hept-5-ene-2-carboxamide], the inhibition constant (Ki) at Aurora B, on Aurora A and on KDR was under 100 nM each time.
On to `CNC(=O)Cn1cc(Nc2ncc(Cl)c(N[C@H]3[C@@H](C(N)=O)[C@@H]4C=C[C@H]3C4)n2)cn1` [Example 75, (1S,2S,3R,4R)-3-{[5-chloro-2-({1-[2-(methylamino)-2-oxoethyl]-1H-pyrazol-4-yl}amino)pyrimidin-4-yl]amino}bicyclo[2.2.1]hept-5-ene-2-carboxamide], for which the Ki on Aurora B, on Aurora A and at KDR was under 100 nM throughout.
Regarding `NC(=O)[C@@H]1[C@H](Nc2nc(Nc3cnn([C@@H]4CCCNC4)c3)ncc2Cl)[C@H]2C=C[C@@H]1C2` [Example 84, (1S,2S,3R,4R)-3-{[5-chloro-2-({1-[(3R)-piperidin-3-yl]-1H-pyrazol-4-yl}amino)pyrimidin-4-yl]amino}bicyclo[2.2.1]hept-5-ene-2-carboxamide], the Ki on Aurora B, at Aurora A and at KDR was under 100 nM each time.
